A value given as a limit tells only on which side of the number the result lay.

Assay [1] concerns the target T1, Recombinant human c-Cbl (aa 47-435) (Homo sapiens, UniProt P22681).
T1 sequence (P22681 47-435): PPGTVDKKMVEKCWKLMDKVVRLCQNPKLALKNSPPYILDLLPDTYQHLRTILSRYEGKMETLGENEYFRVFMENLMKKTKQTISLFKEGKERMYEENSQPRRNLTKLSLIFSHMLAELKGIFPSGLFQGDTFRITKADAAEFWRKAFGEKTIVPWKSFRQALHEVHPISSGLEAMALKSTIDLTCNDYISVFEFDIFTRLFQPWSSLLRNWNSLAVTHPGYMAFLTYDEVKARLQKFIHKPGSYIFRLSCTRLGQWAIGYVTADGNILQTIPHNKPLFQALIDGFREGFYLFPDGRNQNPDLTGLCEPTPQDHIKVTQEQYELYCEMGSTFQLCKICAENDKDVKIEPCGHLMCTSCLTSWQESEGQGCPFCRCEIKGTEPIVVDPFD
In words: c-Cbl Biochemical Assay (TR-FRET). To be noted: hc-Cbl Biochemical Assay (TR-FRET); read-out: TR-FRET hcCbl IC50.

The subject of assay [2] is Jurkat (clone E6-1) cells with NFAT luciferase reporter. In words: Jurkat reporter assay (NFAT Luciferase). In kind it is cell-based. To be noted: Homo sapiens; Jurkat NFAT luciferase reporter cells, anti-CD3 stimulation, 6 hr; read-out: Jurkat NFAT EC50. For orientation: A reporter such as luciferase makes a cellular process visible.
The target of assay [3] is Recombinant human Cbl-b (aa 36-427) (Homo sapiens, UniProt Q13191). The assay is described as follows: Cbl-b Biochemical Assay (TR-FRET). The note with it: read-out: TR-FRET hCbl-b IC50. (Time-resolved FRET reads energy transfer from a long-lived donor to a nearby acceptor.)
Sequence of Recombinant human Cbl-b (aa 36-427) (Q13191 36-427): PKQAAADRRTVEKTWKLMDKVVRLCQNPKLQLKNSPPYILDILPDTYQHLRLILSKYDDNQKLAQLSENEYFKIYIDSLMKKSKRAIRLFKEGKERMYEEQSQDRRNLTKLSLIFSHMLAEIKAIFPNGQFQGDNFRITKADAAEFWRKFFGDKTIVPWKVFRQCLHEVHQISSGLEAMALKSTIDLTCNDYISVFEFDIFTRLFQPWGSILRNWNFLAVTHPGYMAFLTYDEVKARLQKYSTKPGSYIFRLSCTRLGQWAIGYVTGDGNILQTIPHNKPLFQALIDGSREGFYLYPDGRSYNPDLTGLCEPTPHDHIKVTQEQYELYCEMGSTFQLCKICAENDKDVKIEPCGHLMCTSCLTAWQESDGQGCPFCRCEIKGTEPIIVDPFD

For orientation: IC50 means the concentration that gives 50% inhibition. By EC50 is commonly meant the midpoint of the concentration-response curve. In the case of `Cn1cnnc1-c1cc(F)ccc1-c1cccc(-c2nc3cc(CN[C@@H]4CCC[C@@H]4O)cc(C(F)(F)F)c3[nH]2)c1` [BM-2, (1S,2R)-2-(((2-(4′-Fluoro-2′-(4-methyl-4H-1,2,4-triazol-3-yl)-[1,1′-biphenyl]-3-yl)-7-(trifluoromethyl)-1H-benzo[d]imidazol-5-yl)methyl)amino)cyclopentan-1-ol], the IC50 in assay [1] is 1000 to 10000 nM; in assay [3], < 200 nM. For the same compound, the EC50 in assay [2] lay within 200 to 1000 nM.

Consider `COCCNCc1ccc2oc(-c3cc(-c4ccc(Cl)cc4-c4nncn4C)cc(C4CC4)n3)nc2c1` [AEM-1], for which the IC50 in assay [1] and in assay [3] was < 200 nM each time. Besides, in assay [2], the half-maximal effective concentration (EC50) was < 200 nM.

For `Cn1cnnc1-c1cc(F)ccc1-c1cccc(-c2nc3cc(NCCN4CCC4)cc(C(F)(F)F)c3o2)c1` [HZ-2, N-(2-(Azetidin-1-yl)ethyl)-2-(4′-fluoro-2′-(4-methyl-4H-1,2,4-triazol-3-yl)-[1,1′-biphenyl]-3-yl)-7-(trifluoromethyl)benzo[d]oxazol-5-amine], the IC50 was 200 to 1000 nM in assay [1] and < 200 nM in assay [3]. Further, the EC50 in assay [2] was 1000 to 10000 nM.

For `CO[C@@H](C)[C@H](C)NCc1cc(C)c2oc(-c3cc(-c4ccc(F)cc4-c4nncn4C)cc(C4CC4)n3)nc2c1` [AGC-2, [(2-{6-Cyclopropyl-4-[4-fluoro-2-(4-methyl-1,2,4-triazol-3-yl)phenyl]pyridin-2-yl}-7-methyl-1,3-benzoxazol-5-yl)methyl][(2S,3S)-3-methoxybutan-2-yl]amine], the IC50 in assay [1] and in assay [3] was < 200 nM in each case. For the same compound, in assay [2], the EC50 was < 200 nM.

Turning to `CO[C@H](C)[C@@H](C)NCc1cc(C)c2oc(-c3cc(-c4ccc(F)cc4-c4nncn4C)cc(C4CC4)n3)nc2c1` [AFZ-2, [(2-{6-Cyclopropyl-4-[4-fluoro-2-(4-methyl-1,2,4-triazol-3-yl)phenyl]pyridin-2-yl}-7-methyl-1,3-benzoxazol-5-yl)methyl][(2R,3R)-3-methoxybutan-2-yl]amine], the IC50 in assay [1] and in assay [3] was 200 to 1000 nM in each case. Also, the EC50 in assay [2] was 200 to 1000 nM.

Take `Cc1cc(CNCC2(O)CCC2)cc2nc(-c3cccc(-c4ccc(F)cc4-c4nncn4C)c3)oc12` [IJ-1, 1-((((2-(4′-Fluoro-2′-(4-methyl-4H-1,2,4-triazol-3-yl)-[1,1′-biphenyl]-3-yl)-7-methylbenzo[d]oxazol-5-yl)methyl)amino)methyl)cyclobutan-1-ol]: the IC50 in assay [1] and in assay [3] was < 200 nM each time. Moreover, the EC50 in assay [2] is < 200 nM.

As to `Cn1cnnc1-c1cc(F)ccc1-c1cccc(-c2nc3cc(CN[C@@H]4CCC[C@@]4(O)C(F)(F)F)cc(C(F)(F)F)c3o2)c1` [JI-3, (1S,2R)-2-(((2-(4′-Fluoro-2′-(4-methyl-4H-1,2,4-triazol-3-yl)-[1,1′-biphenyl]-3-yl)-7-(trifluoromethyl)benzo[d]oxazol-5-yl)methyl)amino)-1-(trifluoromethyl)cyclopentan-1-ol], the IC50 in assay [1] and in assay [3] was < 200 nM each time. The EC50 in assay [2] was < 200 nM.

On to `Cc1cc(CNCC2(O)CCC2)cc2nc(-c3cc(-c4ccc(F)cc4-c4nncn4C)cc(C4CC4)n3)oc12` [AEV-1, 1-({[(2-{6-Cyclopropyl-4-[4-fluoro-2-(4-methyl-1,2,4-triazol-3-yl)phenyl]pyridin-2-yl}-7-methyl-1,3-benzoxazol-5-yl)methyl]amino}methyl)cyclobutan-1-ol], for which the IC50 in assay [1] and in assay [3] was < 200 nM in each case. Besides, the EC50 in assay [2] is < 200 nM.

As for `COc1cc(CN[C@H]2C[C@H](O)C2)cc2nc(-c3cccc(-c4ccc(F)cc4-c4nncn4C)c3)oc12` [GY-1, (1R,3R)-3-(((2-(4′-Fluoro-2′-(4-methyl-4H-1,2,4-triazol-3-yl)-[1,1′-biphenyl]-3-yl)-7-methoxybenzo[d]oxazol-5-yl)methyl)amino)cyclobutan-1-ol], the IC50 is 1000 to 10000 nM in assay [1] and 200 to 1000 nM in assay [3]. Further, the EC50 in assay [2] was 10000 to 50000 nM.

In the case of `Cn1cnnc1-c1cc(C#N)ccc1-c1cccc(-c2nc3cc(CO)cc(C(F)(F)F)c3o2)c1` [CL-2, 3′-(5-(Hydroxymethyl)-7-(trifluoromethyl)benzo[d]oxazol-2-yl)-2-(4-methyl-4H-1,2,4-triazol-3-yl)-[1,1′-biphenyl]-4-carbonitrile], the IC50 in assay [1] is 200 to 1000 nM; in assay [3], < 200 nM. Moreover, in assay [2], the EC50 was in the range of 1000 to 10000 nM.

For `Cn1cnnc1-c1cc(F)ccc1-c1cccc(-c2nc3cc(CN[C@@H]4CCC[C@@H]4O)cc(C(C)(F)F)c3o2)c1` [FJ-2, (1S,2R)-2-(((7-(1,1-Difluoroethyl)-2-(4′-fluoro-2′-(4-methyl-4H-1,2,4-triazol-3-yl)-[1,1′-biphenyl]-3-yl)benzo[d]oxazol-5-yl)methyl)amino)cyclopentan-1-ol], the IC50 in assay [1] and in assay [3] was < 200 nM in each case. In addition, the EC50 in assay [2] was < 200 nM.

As to `Cn1cnnc1-c1cc(F)ccc1-c1cccc(-c2nc3cc(CNCC(O)(C(F)(F)F)C(F)(F)F)cc(C(F)(F)F)c3o2)c1` [CZ-2, 1,1,1,3,3,3-Hexafluoro-2-((((2-(4′-fluoro-2′-(4-methyl-4H-1,2,4-triazol-3-yl)-[1,1′-biphenyl]-3-yl)-7-(trifluoromethyl)benzo[d]oxazol-5-yl)methyl)amino)methyl)propan-2-ol], the IC50 in assay [1] and in assay [3] was < 200 nM each time. For the same compound, the EC50 in assay [2] is 200 to 1000 nM.

Take `Cn1cnnc1-c1cc(F)ccc1-c1cccc(-c2nc3cc(CN[C@@H]4CCC[C@@H]4O)cc(C(F)(F)F)c3o2)c1` [Example T-5, (1S,2R)-2-(((2-(4′-Fluoro-2′-(4-methyl-4H-1,2,4-triazol-3-yl)-[1,1′-biphenyl]-3-yl)-7-(trifluoromethyl)benzo[d]oxazol-5-yl)methyl)amino)cyclopentan-1-ol]: the IC50 was 1000 to 10000 nM in assay [1] and < 200 nM in assay [3]. For the same compound, the EC50 in assay [2] lay in the range of 200 to 1000 nM.

Regarding `Cn1cnnc1-c1cc(F)ccc1-c1cccc(-c2nc3cc(CN[C@@H]4CCC[C@@H]4O)cc(C4CC4)c3o2)c1` [ES-6, (1S,2R)-2-(((7-Cyclopropyl-2-(4′-fluoro-2′-(4-methyl-4H-1,2,4-triazol-3-yl)-[1,1′-biphenyl]-3-yl)benzo[d]oxazol-5-yl)methyl)amino)cyclopentan-1-ol], the IC50 in assay [1] and in assay [3] was < 200 nM in each case. Further, in assay [2], the EC50 is < 200 nM.

Consider `Cn1cnnc1-c1cc(F)ccc1-c1cccc(-c2nc3cc(CNCC4CCCC4)cc(C(F)(F)F)c3o2)c1` [DV-2, 1-Cyclopentyl-N-((2-(4′-fluoro-2′-(4-methyl-4H-1,2,4-triazol-3-yl)-[1,1′-biphenyl]-3-yl)-7-(trifluoromethyl)benzo[d]oxazol-5-yl)methyl)methanamine], for which the IC50 in assay [1] and in assay [3] was < 200 nM throughout. The half-maximal effective concentration (EC50) in assay [2] was < 200 nM.

Take `Cn1cnnc1-c1cc(F)ccc1-c1cccc(-c2nc3cc(CN[C@@H]4CCCC[C@@H]4O)cc(C(F)(F)F)c3o2)c1` [DF-2, (1S,2R)-2-(((2-(4′-Fluoro-2′-(4-methyl-4H-1,2,4-triazol-3-yl)-[1,1′-biphenyl]-3-yl)-7-(trifluoromethyl)benzo[d]oxazol-5-yl)methyl)amino)cyclohexan-1-ol]: the IC50 in assay [1] and in assay [3] was < 200 nM throughout. Besides, the half-maximal effective concentration (EC50) in assay [2] was < 200 nM.

For the compound `Cn1cnnc1[C@]1(c2cccc(-c3nc4cc(CNCC5CCC5)cc(C(F)(F)F)c4o3)c2)C[C@H](C)C1` [ADZ-1, (Cyclobutylmethyl)[(2-{3-[(1r,3s)-3-methyl-1-(4-methyl-1,2,4-triazol-3-yl)cyclobutyl]phenyl}-7-(trifluoromethyl)-1,3-benzoxazol-5-yl)methyl]amine], the IC50 in assay [1] and in assay [3] was < 200 nM throughout. The EC50 in assay [2] was in the range of 200 to 1000 nM.

On to `Cn1cnnc1-c1cc(F)ccc1-c1cccc(-c2nc3cc(CNCC(C)(C)F)cc(C(F)(F)F)c3[nH]2)c1` [CD-2, 2-Fluoro-N-((2-(4′-fluoro-2′-(4-methyl-4H-1,2,4-triazol-3-yl)-[1,1′-biphenyl]-3-yl)-7-(trifluoromethyl)-1H-benzo[d]imidazol-5-yl)methyl)-2-methylpropan-1-amine, Formic Acid], for which the half-inhibitory concentration (IC50) is 1000 to 10000 nM in assay [1] and < 200 nM in assay [3]. In addition, in assay [2], the EC50 was 200 to 1000 nM.

As to `Cn1cnnc1-c1cc(F)ccc1-c1cccc(-c2nc3cc(CNCC4CCC4)c(F)c(F)c3o2)c1` [IX-1, 1-Cyclobutyl-N-((6,7-difluoro-2-(4′-fluoro-2′-(4-methyl-4H-1,2,4-triazol-3-yl)-[1,1′-biphenyl]-3-yl)benzo[d]oxazol-5-yl)methyl)methanamine], the concentration for half-maximal inhibition (IC50) in assay [1] and in assay [3] was < 200 nM in each case. Besides, the EC50 in assay [2] was < 200 nM.

As for `COC(=O)c1cc2nc(-c3cc(-c4ccc(F)cc4-c4nncn4C)cc(C4CC4)n3)oc2c(F)c1F` [AFW-1, Methyl 2-{6-cyclopropyl-4-[4-fluoro-2-(4-methyl-1,2,4-triazol-3-yl)phenyl]pyridin-2-yl}-6,7-difluoro-1,3-benzoxazole-5-carboxylate], the IC50 in assay [1] and in assay [3] was 1000 to 10000 nM throughout. Moreover, the EC50 in assay [2] lay within 1000 to 10000 nM.

The values are drawn from patent publication US20250163038A1, “CBL-B MODULATORS AND USES THEREOF” (Nimbus Clio, Inc., priority 2021, published 2025).
